Our source for the remaining activity values is article PMC8286840, “Identifying SARS-CoV-2 antiviral compounds by screening for small molecule inhibitors of Nsp3 papain-like protease” (Biochemical Journal, 2021).

Counter-ions that a name gives are not always drawn. Like-named read-outs stand apart in the source and are kept apart here.

The target of test [1] is T1, SARS-CoV-2 PLpro (nsp3 1564–1878) (Severe acute respiratory syndrome coronavirus 2, UniProt P0DTD1). The test is described as follows: biochemical. Also on record: FRET-quenched peptide (Pro3) cleavage by PLpro, 10 min pre-incubation, slope over 20 min, normalised to no-compound control. To be noted: low concentration screen, read-out: % of control remaining.
Test [2] deals with T1, SARS-CoV-2 PLpro (nsp3 1564–1878). The test is described as follows: biochemical. The following applies: high concentration screen, read-out: % of control remaining. Also on record: FRET-quenched peptide (Pro3) cleavage by PLpro, 10 min pre-incubation, slope over 20 min, normalised to no-compound control.

Consider `CC(C)(Cc1ccc2ccccc2c1)NC[C@@H](O)COc1cccc(Cl)c1C#N` [NPS-2143], for which the remaining activity at 1.25 µM in test [1] (Well no.=7036) came out at 96.4%. Moreover, the remaining activity at 3.75 µM in test [2] (Well no.=7036) was determined as 93.8%.
For `CC(=O)c1ccc(NC2=C(Cl)C(=O)c3ccccc3C2=O)cc1` [NQ301], the remaining activity at 1.25 µM in test [1] (Well no.=5652) was 93.7%. Also, in test [2] (Well no.=5652), the remaining activity at 3.75 µM was found to be 82.1%.
Turning to `CCOC(=O)c1c2c3c(cccc3[nH]c1=O)C(=O)c1ccccc1-2` [NQDI-1], the remaining activity at 1.25 µM in test [1] (Well no.=5480) came out at 90.1%. Besides, in test [2] (Well no.=5480), the remaining activity at 3.75 µM came out at 96.7%.
With `CCCCN1CCC(n2c(=O)[nH]c3ccccc32)CC1` [NS 521 oxalate], the remaining activity at 1.25 µM in test [1] (Well no.=1003) amounted to 99.3%. For the same compound, the remaining activity at 3.75 µM in test [2] (Well no.=1003) was found to be 105%.
Regarding `O=c1onc2n1-c1cc(Br)ccc1OC2` [NS 2028], the remaining activity at 1.25 µM in test [1] (Well no.=990) came out at 99.8%. The remaining activity at 3.75 µM in test [2] (Well no.=990) was 99.6%.
On to `CC(C)N(CCCCOCC(=O)NS(C)(=O)=O)c1cnc(-c2ccccc2)c(-c2ccccc2)n1` [NS-304], for which, in test [1] (Well no.=6795), the remaining activity at 1.25 µM was determined as 97.6%. Further, in test [2] (Well no.=6795), the remaining activity at 3.75 µM is 94.6%.
`O=c1[nH]c2cc(C(F)(F)F)ccc2n1-c1cc(C(F)(F)F)ccc1O` [NS-1619]: the remaining activity at 1.25 µM in test [1] (Well no.=846) is 104%. Moreover, in test [2] (Well no.=846), the remaining activity at 3.75 µM stood at 102%.
Regarding `CN1CCN(C(=O)/C=C/c2ccc([N+](=O)[O-])o2)CC1` [NSC59984], in test [1] (Well no.=6644), the remaining activity at 1.25 µM was 105%. The remaining activity at 3.75 µM in test [2] (Well no.=6644) was 106%.
Regarding `C/C(=N\NC(=S)N1CCC1)c1ccccn1` [NSC319726], in test [1] (Well no.=6736), the remaining activity at 1.25 µM came out at 102%. The remaining activity at 3.75 µM in test [2] (Well no.=6736) was determined as 102%.
For the compound `Cc1ccc2nc(CN(CCN(Cc3nc4ccc(C)cc4[nH]3)Cc3nc4ccc(C)cc4[nH]3)Cc3nc4ccc(C)cc4[nH]3)[nH]c2c1` [NSC348884], the remaining activity at 1.25 µM in test [1] (Well no.=6442) was determined as 105%. Moreover, in test [2] (Well no.=6442), the remaining activity at 3.75 µM stood at 98.1%.
On to `CC(C)(N)C(=O)O` [NSC 16590], for which the remaining activity at 1.25 µM in test [1] (Well no.=7781) came to 103%. For the same compound, the remaining activity at 3.75 µM in test [2] (Well no.=7781) was 108%.
`CCN(CC)CCCC(C)Nc1nc(C)cc(Nc2ccc3nc(C)cc(N)c3c2)n1` (stereo not drawn) [NSC 23766]: in test [1] (Well no.=4798), the remaining activity at 1.25 µM amounted to 103%. Further, in test [2] (Well no.=4798), the remaining activity at 3.75 µM turned out to be 101%.
With `CC(=O)N[C@@H](Cc1ccccc1)C(=O)O` [NSC 45699], in test [1] (Well no.=8710), the remaining activity at 1.25 µM stood at 107%. Besides, in test [2] (Well no.=8710), the remaining activity at 3.75 µM was 106%.
In the case of `O=C1C(SCCO)=C(SCCO)C(=O)c2ccccc21` [NSC 95397], the remaining activity at 1.25 µM in test [1] (Well no.=5678) is 92%. Besides, the remaining activity at 3.75 µM in test [2] (Well no.=5678) was 75.9%.
Consider `CN1CCN(c2ccc([N+](=O)[O-])c3no[n+]([O-])c23)CC1` [NSC-207895 (XI-006)], for which the remaining activity at 1.25 µM in test [1] (Well no.=4647) was determined as 101%. In addition, in test [2] (Well no.=4647), the remaining activity at 3.75 µM was determined as 95.2%.
On to `O=c1cc(N2CCOCC2)oc2c(-c3cccc4c3sc3ccccc34)cccc12` [NU7441 (KU-57788)], for which, in test [1] (Well no.=4926), the remaining activity at 1.25 µM was 99.2%. Moreover, the remaining activity at 3.75 µM in test [2] (Well no.=4926) worked out at 94.3%.
`O=c1cc(N2CCOCC2)oc2c1ccc1ccccc12` [NU 7026 - 2-(4-Morpholinyl)-4H-naphthol[1,2-b]pyran-4-one]: the remaining activity at 1.25 µM in test [1] (Well no.=2630) was determined as 92.2%. Also, the remaining activity at 3.75 µM in test [2] (Well no.=2630) is 92.6%.
Regarding `O=C(Nc1nc2ccc(NC(=O)C34C[C@H]5C[C@@H](C3)C[C@@H](C4)C5)cc2s1)c1ccccc1` [NVP-231], the remaining activity at 1.25 µM in test [1] (Well no.=5410) was determined as 95.2%. The remaining activity at 3.75 µM in test [2] (Well no.=5410) is 86.5%.
For the compound `CCNC(=O)c1cc2c(-c3cc(OCCN4CCCC4)c(Cl)cc3Cl)nc(N)nc2s1` [NVP-BEP800], the remaining activity at 1.25 µM in test [1] (Well no.=4917) is 93.5%. For the same compound, in test [2] (Well no.=4917), the remaining activity at 3.75 µM came out at 95.1%.
For `COc1ccc(-c2ccc3ncc4c(c3c2)n(-c2ccc(N3CCNCC3)c(C(F)(F)F)c2)c(=O)n4C)cn1` [NVP-BGT226], the remaining activity at 1.25 µM in test [1] (Well no.=4701) is 99%. For the same compound, in test [2] (Well no.=4701), the remaining activity at 3.75 µM came to 97.1%.
Turning to `Cc1ccc(C(=O)Nc2cccc(C(F)(F)F)c2)cc1Nc1nc(-c2cccnc2)nc2c1cnn2C` [NVP-BHG712], in test [1] (Well no.=4820), the remaining activity at 1.25 µM worked out at 100%. Besides, in test [2] (Well no.=4820), the remaining activity at 3.75 µM was 96.9%.
As for `Cn1cc(-c2ccc3ncc(Cc4ccc5ncccc5c4)n3n2)cn1` [NVP-BVU972], the remaining activity at 1.25 µM in test [1] (Well no.=4930) stood at 98.1%. Besides, the remaining activity at 3.75 µM in test [2] (Well no.=4930) stood at 92.3%.
As for `COc1cc2c(cc1OC(C)C)[C@H](c1ccc(Cl)cc1)N(c1ccc(N(C)C[C@H]3CC[C@H](N4CCN(C)C(=O)C4)CC3)cc1)C(=O)C2` [NVP-CGM097 (sulfate)], in test [1] (Well no.=6878), the remaining activity at 1.25 µM turned out to be 95.2%. In test [2] (Well no.=6878), the remaining activity at 3.75 µM was found to be 89.6%.
With `COc1cc2c(cc1OC(C)C)[C@H](c1ccc(Cl)cc1)N(c1ccc(N(C)C[C@H]3CC[C@H](N4CCN(C)C(=O)C4)CC3)cc1)C(=O)C2` [NVP-CGM097], in test [1] (Well no.=6974), the remaining activity at 1.25 µM is 95.7%. Also, the remaining activity at 3.75 µM in test [2] (Well no.=6974) worked out at 94.5%.
As to `CNC(=O)c1ccccc1Nc1nc(Nc2ccc(N3CCOCC3)cc2OC)ncc1Cl` [NVP-TAE226], the remaining activity at 1.25 µM in test [1] (Well no.=4789) stood at 103%. Also, the remaining activity at 3.75 µM in test [2] (Well no.=4789) worked out at 105%.
In the case of `CN(C)C(N)=NCCC[C@H](N)C(=O)O` [N^G,N^G-Dimethylarginine hydrochloride], the remaining activity at 1.25 µM in test [1] (Well no.=689) was 97%. Besides, in test [2] (Well no.=689), the remaining activity at 3.75 µM was determined as 97%.
On to `COc1ccc2cc(CCC(C)=O)ccc2c1` [Nabumetone], for which the remaining activity at 1.25 µM in test [1] (Well no.=2005) is 102%. Besides, the remaining activity at 3.75 µM in test [2] (Well no.=2005) was 101%.
Regarding `CC1CCc2c(N3CCC(O)CC3)c(F)cc3c(=O)c(C(=O)O)cn1c23` (stereo not drawn) [Nadifloxacin], the remaining activity at 1.25 µM in test [1] (Well no.=2003) was 96.2%. For the same compound, the remaining activity at 3.75 µM in test [2] (Well no.=2003) was found to be 94.8%.
For the compound `N=C(N)Nc1ccc(C(=O)Oc2ccc3cc(C(=N)N)ccc3c2)cc1` [Nafamostat mesylate], the remaining activity at 1.25 µM in test [1] (Well no.=4809) turned out to be 104%. In addition, the remaining activity at 3.75 µM in test [2] (Well no.=4809) stood at 104%.
Consider `CCOc1ccc2ccccc2c1C(=O)N[C@@H]1C(=O)N2[C@@H]1SC(C)(C)[C@@H]2C(=O)O` [Nafcillin (sodium monohydrate)], for which, in test [1] (Well no.=8660), the remaining activity at 1.25 µM came out at 99%. For the same compound, in test [2] (Well no.=8660), the remaining activity at 3.75 µM came out at 98.1%.
For `CCOc1ccc2ccccc2c1C(=O)N[C@@H]1C(=O)N2[C@@H]1SC(C)(C)[C@@H]2C(=O)O` [Nafcillin Sodium], the remaining activity at 1.25 µM in test [1] (Well no.=4690) worked out at 104%. For the same compound, the remaining activity at 3.75 µM in test [2] (Well no.=4690) is 101%.
For the compound `CCN(CC)CCOC(=O)C(Cc1cccc2ccccc12)CC1CCCO1` (stereo not drawn) [Naftidrofuryl (oxalate)], the remaining activity at 1.25 µM in test [1] (Well no.=7050) was found to be 98%. Also, the remaining activity at 3.75 µM in test [2] (Well no.=7050) was 93.7%.
Take `CN(C/C=C/c1ccccc1)Cc1cccc2ccccc12` [Naftifine HCl]: in test [1] (Well no.=4983), the remaining activity at 1.25 µM came to 96.8%. For the same compound, the remaining activity at 3.75 µM in test [2] (Well no.=4983) turned out to be 96.2%.
